Read-outs that look alike come from different tables or passages of the source.
What was measured:
[1] = tested on: BxPC3 (pancreas, adeno) xenograft; test: Xenograft, fractionated IR plus Compound 1, time to TV400%; assay type: in vivo, mouse
Procedure: (§1) The therapeutic relevance of DNA-PK inhibition by Compound 1 was investigated in vivo in combination with ionizing radiation (IR), a clinically established DSB-inducing treatment. Compound 1 was tested for activity in six xenograft mouse models of human cancer. The models were chosen from different cancer indications (colon, lung, head and neck, pancreatic), and histological subtypes (adeno, squamous, large cell). Ionizing radiation was administered using a fractionated schedule of 2 Gy per day administered over five consecutive days (total radiation dose=10 Gy). Compound 1 was given orally 10 min prior to each fraction of radiation (ONC397-1-2AZ, ONC397-1-3AZ, ONC397-1-4AZ, ONC397-1-5AZ, ONC397-1-8AZ).
(§2) Radiotherapy enhancing effect of Compound 1 was quantified across the tested models by the time to reaching 400% initial volume for the 150 mg/kg study arms. The resulting Kaplan-Meier plots were compared by the log-rank test.

[2] = tested on: NCI-H460 (lung, large cell) xenograft; test: as above; assay type: in vivo, mouse
Procedure: as §1, §2

[3] = tested on: A549 (lung, adeno) xenograft; test: as above; assay type: in vivo, mouse
Procedure: as §1, §2

[4] = tested on: Capan-1 (pancreas, adeno) xenograft; test: as above; assay type: in vivo, mouse
Procedure: as §1, §2

[5] = tested on: HCT116 (colon, adeno) xenograft; test: as above; assay type: in vivo, mouse
Procedure: as §1, §2

DNA-PK (p-Ser2056) = target: T1, DNA-PK (p-Ser2056) (Homo sapiens, UniProt P78527); test: IR-induced DNA-PK phosphorylation in tumor tissue, MSD assay, WM164 xenograft; assay type: in vivo
T1 construct: from tissue; host or cells: human tumor xenografts (FaDu, HCT116, WM164) grown in mice
Excerpt: Following the induction of DSB by radiation therapy or other DNA damaging agents, the catalytic subunit of DNA-PK (DNA-PKc) is autophosphorylated at several serine and threonine residues. Ser2056 is one of the most prominent and best studied autophosphorylation sites. Because Ser2056 phosphorylation (p-Ser2056) correlated well with DNA-PK activation state it was chosen as the pharmacodynamics (PD) biomarker. Two different assay formats were established to measure p-Ser2056 in tumor tissue: ELISA and MSD format. In order to detect sequence reliable signal, IR was used at 50 Gy for the ELISA assay and 10 Gy for the more sensitive MSD assay.

[6] = tested on: resting, non-proliferating PBMC; test: Single agent activity, panel of 81 cancer cell lines plus PBMC; assay type: cell-based
[7] = tested on: 81 cancer cell lines representing 17 tumor tissue types; test: as above; assay type: cell-based; settings: for GI50: PBMC
MO59K (DNA-PK wild type) = test: AlamarBlue viability assay; assay type: cell-based, human
Procedure: Details of the assay protocol and material utilized are set forth below.
After 24 h incubation at 37° C.
At the end of the compound incubation period 20 μl AlamarBlue reagent was added per well and the 96-well plates were incubated further up to seven hours. Absorption was determined at 540 nm by using Tecan Reader Connect and Magelan 7.
0% effect=cells treated with DMSO; −100% effect=no cells

SKNAS = test: SRB growth inhibition, 93 cell lines panel; settings: Homo sapiens, SK-N-AS, read-out: GI50 of etoposide (±Compound 1)
Procedure: Cell growth and treatment were performed in 96-well microtitre plates CELLSTAR® (Greiner Bio-One, Germany). Cells harvested from exponential phase cultures by trypsinization or by splitting (in the case of cells growing in suspension) were plated in 90 μl of media at optimal seeding densities. The optimal seeding density for each cell line was determined to ensure exponential growth for the duration of the experiment. All cells growing without anticancer agents were sub-confluent by the end of the treatment, as determined by visual inspection. […] The cells were allowed to grow at 37° C. for 72 (or 120) hours. […] Cells were fixed to the surface by addition of 10% TCA (for adherent growing cells) or 50% TCA (for semi-adherent growing cell or cells growing in suspension). After an hour of incubation at 4° C. plates were washed twice with 200 μl of deionized water and dried. Cells were then stained with 100 μl of 0.04% w/v SRB. The plates were incubated at room temperature for at least 30 min and washed six times with 1% acetic acid to remove unbound stain. […] Using these measurements, cellular responses can be calculated for incomplete inhibition of cell growth (GI), complete inhibition of cell growth (TGI) and net loss of cells (LC) due to compound activity. […] TGI was calculated from Ti=Tz.

panel of 93 cell lines = test: SRB growth inhibition, 93 cell lines panel (summary); assay type: cell-based
Procedure: 90 μl of cells, after a 48-hour pre-growth period, were treated by mixing with 10 μl of the compound-containing media (resulting in a final DMSO concentration of 0.1%).
This is the drug concentration causing a 50% reduction compared to the net protein increase in control cells during the drug incubation period. In other words, G150 is IC50 corrected for time zero. […] TGI was calculated from Ti=Tz. […] It was calculated as 100×[(Ti−Tz)/Tz]=−50.
The * or ** mark the lowest or highest tested concentrations. […] Both uM and μM stand for micromolar.

T24 = test: cells; settings: Homo sapiens, T-24, read-out: GI50 of etoposide (±Compound 1)
Procedure: (§3) Cell growth and treatment were performed in 96-well microtitre plates CELLSTAR® (Greiner Bio-One, Germany). Cells harvested from exponential phase cultures by trypsinization or by splitting (in the case of cells growing in suspension) were plated in 90 μl of media at optimal seeding densities. The optimal seeding density for each cell line was determined to ensure exponential growth for the duration of the experiment. All cells growing without anticancer agents were sub-confluent by the end of the treatment, as determined by visual inspection.
(§4) 90 μl of cells, after a 48-hour pre-growth period, were treated by mixing with 10 μl of the compound-containing media (resulting in a final DMSO concentration of 0.1%). The cells were allowed to grow at 37° C. for 72 (or 120) hours.
(§5) Cells were fixed to the surface by addition of 10% TCA (for adherent growing cells) or 50% TCA (for semi-adherent growing cell or cells growing in suspension). After an hour of incubation at 4° C. plates were washed twice with 200 μl of deionized water and dried. Cells were then stained with 100 μl of 0.04% w/v SRB. […]
(§6) Using these measurements, cellular responses can be calculated for incomplete inhibition of cell growth (GI), complete inhibition of cell growth (TGI) and net loss of cells (LC) due to compound activity. […] TGI was calculated from Ti=Tz. […] It was calculated as 100×[(Ti−Tz)/Tz]=−50.

HCT15 = test: cells; settings: Homo sapiens, HCT-15, read-out: GI50 of etoposide (±Compound 1)
Procedure: as §3, §4, §5, §6

colon cancer cell lines = test: cells; settings: read-out: Median etoposide concentration needed to reach GI50
Procedure: Single agent as well as combination treatment growth inhibition effects were measured by ONCOLEAD.
Relative area above the dose-response curve (relAOC or AOC) were obtained as the area above the dose-response curve in the dose range between 1E-3M and 1E-10M.

[8] = IR 10 Gy (5 x 2 Gy) + Compound 1 150 mg/kg po
[9] = IR 10 Gy (5 x 2 Gy) + Compound 1 150 mg/kg po 10 min prior to each fraction

Structure (SMILES): COc1ccc([C@@H](O)c2cc(-c3ncnc4cc(N5CCOCC5)ccc34)c(F)cc2Cl)nn1 [Compound 1, (S)-[2-chloro-4-fluoro-5-(7-morpholin-4-yl-quinazolin-4-yl)-phenyl]-(6-methoxy-pyridazin-3-yl)-methanol]
- Enhancement Ratio [combi/IR only] [1, 8]: 2
- median time to TV400% Combi [1, 9]: 73.5 days
- Enhancement Ratio [combi/IR only] [2, 8]: 2.6
- median time to TV400% Combi [2, 9]: 45 days
- Enhancement Ratio [combi/IR only] [3, 8]: 1.5
- median time to TV400% Combi [3, 9]: 42 days
- Enhancement Ratio [combi/IR only] [4, 8]: 2
- median time to TV400% Combi [4, 9]: 132 days
- Enhancement Ratio [combi/IR only] [5, 8]: 1.5
- median time to TV400% Combi [5, 9]: 46 days
- inhibition of IR-induced DNA-PK phosphorylation (Ser2056) (DNA-PK (p-Ser2056); WM164, MSD assay, IR 10 Gy): Dose-dependent inhibition
- DNA-PK autophosphorylation in tumor tissue (DNA-PK (p-Ser2056); WM164, 25 mg/kg 10 minutes prior to 10 Gy IR): inhibition of DNA-PK autophosphorylation
- activity in resting PBMC [6]: No activity
- activity range [7]: more than 20 fold
- GI50 ([7]; in a set of cell lines, read-out: activity (GI50), lower end of range): 500 nM
- GI50 ([7]; read-out: activity (GI50), upper end of range): > 10000 nM
- inhibition of viability, combination with etoposide (MO59K (DNA-PK wild type)): enhanced inhibition of viability
- potentiation of etoposide, Compound 1 in comparison to VX-984 (MO59K (DNA-PK wild type); compound incubation for 72 h): compares favorably

Structure (SMILES): COc1cc([C@@H]2c3cc4c(cc3[C@@H](O[C@@H]3O[C@@H]5CO[C@@H](C)O[C@H]5[C@H](O)[C@H]3O)[C@H]3COC(=O)[C@H]23)OCO4)cc(OC)c1O [Etoposide]
- GI50 (SKNAS): 2150 nM
- GI50 (panel of 93 cell lines; read-out: Average GI50): 1700 nM
- GI50 (panel of 93 cell lines; read-out: Median GI50): 900 nM
- GI50 (panel of 93 cell lines; read-out: Most resistant cell line (GI50)): > 10000 nM
- GI50 (panel of 93 cell lines; read-out: Most sensitive cell line (GI50)): 38 nM
- GI50 (T24): 2530 nM
- GI50 (HCT15): 1470 nM
- GI50 (colon cancer cell lines): 700 nM
- activity in resting PBMC [6]: no activity
- activity range [7]: more than 1000 fold
